{
  "source": "patent US20080009573A1",
  "about": "“Labeled tackifiers” (priority 2006, published 2008)",
  "data": [
    {"smiles": "C=CCN1C(=O)c2cccc3c(CNCCOC(=O)C4(C)CCCC5(C)C6CCC(C(C)C)=CC6=CCC45)ccc(c23)C1=O", "note": "(stereo not shown) [Compound 17, 7-Isopropyl-1,4a-dimethyl-1,2,3,4,4a,4b,5,6,10,10a-decahydro-phenanthrene-1-carboxylic acid 2-[(2-allyl-1,3-dioxo-2,3-dihydro-1H-benzo[de]isoquinolin-6-yl)methylamino]ethyl ester]", "values": [
      {"measurement": "melting point", "value": "64 to 66", "unit": "°C"}
    ]}
  ]
}
